# US20220347175A1, “PYRIDAZINONE DERIVATIVE” (Sumitomo Dainippon Pharma Co., Ltd., priority 2018, published 2022)
# Biological target: T1, human Nav1.1 (Homo sapiens, UniProt P35498)
# T1 construct: host or cells: HEK293
# Assay: Amplification of Nav1.1-derived voltage-dependent sodium current (Nav1.1 current), cell line stably expressing human Nav1.1, automated patch clamp
# Type: cell-based
# Details: 10 μmol/L compound (Test Result 5)
# Protocol: Test 1: Evaluation of the Amplification of Nav1.1-Derived Voltage-Dependent Sodium Current (Nav1.1 Current) by Using a Cell Line Stably Expressing Human Nav1.1
# (1) Preparation of Test Compounds
# Test compounds were prepared by dissolving in DMSO at 200 times of the concentration at evaluation, and diluting the obtained solution to twice the concentration of evaluation with an extracellular fluid (135 mmol/L NaCl, 4 mmol/L KCl, 1 mmol/L MgCl2, 5 mmol/L CaCl2, 5 mmol/L Glucose, 10 mmol/L HEPES).
# (2) Induction and Measurement of Nav1.1 Current
# A HEK293 cell line stably expressing human Nav1.1 (cat #CYL3009, Millipore, USA, Human Embryonic Kidney 293) was purchased, and used in the present test. Nav1.1 current was induced by stimulating Ramp wave voltage. Detection of current which accompanied with the stimulation of voltage was carried out by a patch-clamp voltage-clamp method using HTS automated patch clamp system (SynchroPatch 768PE, Nanion Technologies GmbH, Germany). Only cells with more than 500 pA of voltage-dependent sodium channel current were used for the evaluation of the activity of compounds on Nav1.1 current because there was the possibility that currents derived from endogenous voltage-dependent sodium channels accounted for large proportion in cells with less than 500 pA of voltage-dependent sodium channel current which was induced by stimulating Ramp wave voltage.
# (3) Pharmacologic Effect on Nav1.1 Current
# The effect of test compounds on the amplification of Nav1.1-derived voltage-dependent sodium current was evaluated by using a cell line stably expressing human Nav1.1 and HTS automated patch clamp system. In other words, test compounds were added in an extracellular fluid containing 1% DMSO, and evaluated as a change of the peak value of Nav1.1 current and the area under the curve (AUC).
# (4) Method for Pharmacological Evaluation
# The Nav1.1 current amplification rates of test compounds were calculated by the following formula:
# Nav1.1 current amplification rate (%)=100×[the peak value of Nav1.1 current or the area under the curve after the addition of test compounds]/[the peak value of Nav1.1 current or the area under the curve before the addition of test compounds]−100
row,Nav1.1 current amplification rate (%),Compound
1,147,CC1CC=C(c2ccc(=O)n(CC(=O)Nc3ccnc(-c4cnn(C)c4)c3)n2)CC1 (racemic) [Example 379]
2,18,CC1CC=C(c2ccc(=O)n(CC(=O)Nc3ccc(C4=CCN(C)C4)nc3)n2)CC1 (racemic) [Example 374]
3,19,CC1CC=C(c2ccc(=O)n(CC(=O)N3CCN(Cc4cccnc4)CC3)n2)CC1 (racemic) [Example 393]
4,173,CC1CC=C(c2ccc(=O)n(CC(=O)Nc3ccc(-c4cnn(C)c4)nc3)n2)CC1 (racemic) [Example 375]
5,4,N#Cc1ccc(NC(=O)Cn2nc(N3CCCC(C(N)=O)C3)ccc2=O)cc1 (centres unmarked) [Example 8]
6,85,CC1(C)CCCC(c2ccc(=O)n(CC(=O)Nc3ccc(C#N)cc3)n2)C1 (centres unmarked) [Example 46]
7,202,CC1(C)CCC=C(c2ccc(=O)n(CC(=O)Nc3ccc(C#N)cc3)n2)C1 [Example 45]
8,33,N#Cc1ccc(NC(=O)Cn2nc(C3=CCCCO3)ccc2=O)cc1 [Example 48]
9,18,CC1CC=C(c2ccc(=O)n(CC(=O)NC3CCN(c4ccccc4)CC3)n2)CC1 (racemic) [Example 368]
10,39,CC1CC=C(c2ccc(=O)n(CC(=O)N3CC=C(c4ccccn4)CC3)n2)CC1 (centres unmarked) [Example 420]
11,312,CC1CCN(c2nn(CC(=O)Nc3ccc(C#N)cc3)c(=O)c3c2CCCC3)CC1 [Example 36]
12,40,CC1CC=C(c2ccc(=O)n(CC(=O)N3CCc4c3ccnc4C3=CCNC3)n2)CC1 (racemic) [Example 281]
13,46,Cc1ccc(-c2ccc(=O)n(CC(=O)Nc3cncnc3)n2)cc1 [Example 141]

row,Compound,Nav1.1 current amplification rate (%)
1,N#Cc1ccc(NC(=O)Cn2nc(N3CCCCCC3)ccc2=O)cc1 [Example 11],205
2,N#Cc1ccc(NC(=O)Cn2nc(N3CCC4(CCCO4)CC3)ccc2=O)cc1 [Example 29],20
3,CCCCN(C)c1ccc(=O)n(CC(=O)Nc2ccc(C#N)cc2)n1 [Example 30],77
4,N#Cc1ccc(NC(=O)Cn2nc(N3CCCC4(CCC4)C3)ccc2=O)cc1 [Example 33],220

# Same assay, conditions: 10 μmol/L compound (Test Result 5); read-out: Nav1.1 current amplification rate (%)
row,activation at 10 µM [%],Compound
1,10,CC1(C)C=C(c2ccc(=O)n(CC(=O)Nc3ccc(C#N)cc3)n2)CCO1 [Example 507]
2,22,CC1CC=C(c2ccc(=O)n(CC(=O)NC3CCn4ccnc4C3)n2)CC1 (centres unmarked) [Example 533]
3,22,CC1CCN(c2ccc(=O)n(CC(=O)N3CCN(c4ccccn4)CC3)n2)CC1 [Example 180]

# Same assay, conditions: Concentration 1 μM (Test Result 7); read-out: Nav1.1 current amplification rate (%)
row,activation at 1 µM [%],Compound
1,50,CN(c1ccc(=O)n(CC(=O)Nc2ccc3cnccc3c2)n1)C1CCCC1 [Example 563]
2,155,O=C(Cn1nc(N2CCC3(CCC3)CC2)ccc1=O)Nc1ccc2cncnc2c1 [Example 553]
3,154,CC1CC=C(c2ccc(=O)n(CC(=O)Nc3ccc4cccnc4c3)n2)CC1 (centres unmarked) [Example 543]
4,70,CC1CC=C(c2ccc(=O)n(CC(=O)Nc3ccc(C#N)cc3F)n2)CC1 (centres unmarked) [Example 547]
5,24,CC1CC=C(c2ccc(=O)n(CC(=O)Nc3ccn4ncnc4c3F)n2)CC1 (centres unmarked) [Example 552]
6,13,CN(c1ccc(=O)n(CC(=O)Nc2ccn3ncnc3c2)n1)C1CCCC1 [Example 556]
7,247,CN(c1ccc(=O)n(CC(=O)N2CCc3c(-c4ccnnc4)cccc32)n1)C1CCCC1 [Example 562]
8,31,CC1CC=C(c2ccc(=O)n(CC(=O)Nc3ccc4c(O)ncnc4c3)n2)CC1 (centres unmarked) [Example 550]
9,59,CC1CC=C(c2ccc(=O)n(CC(=O)Nc3ccc4ncccc4c3)n2)CC1 (centres unmarked) [Example 546]
10,17,CN(c1ccc(=O)n(CC(=O)Nc2ccc(C#N)nc2)n1)C1CCCC1 [Example 561]
11,62,CN(c1ccc(=O)n(CC(=O)N2CCc3c(N4CCOCC4)cccc32)n1)C1CCCC1 [Example 565]

# Same assay, conditions: Concentration 10 μM (Test Result 7); read-out: Nav1.1 current amplification rate (%)
row,activation at 10 µM [%],Compound
1,11,CN(c1ccc(=O)n(CC(=O)Nc2ccn3ncnc3c2)n1)C1CC1 [Example 558]

# Same assay, conditions: Concentration 50 μM (Test Result 7); read-out: Nav1.1 current amplification rate (%)
row,activation at 50 µM [%],Compound
1,281,CN(CC1(C)CC1)c1ccc(=O)n(CC(=O)Nc2ccc3cnccc3c2)n1 [Example 567]

# Same assay, conditions: compound 50 μmol/L; HEK293 stably expressing human Nav1.1
row,Nav1.1 current amplification rate (%),Compound
1,98,Cc1cc2ncnn2cc1NC(=O)Cn1nc(C2=CCC(C)CC2)ccc1=O (racemic) [Example 351]
2,202,CC1CC=C(c2ccc(=O)n(CC(=O)Nc3ccc4nncn4c3)n2)CC1 (racemic) [Example 341]
3,212,CC1CC=C(c2ccc(=O)n(CC(=O)N3CCc4c(-c5cc[nH]n5)ccnc43)n2)CC1 (racemic) [Example 291]
4,41,Cc1cc2nc(NC(=O)Cn3nc(C4=CCC(C)CC4)ccc3=O)ccn2n1 (racemic) [Example 340]
5,32,Cc1c(NC(=O)Cn2nc(C3=CCC(C)CC3)ccc2=O)ccc2ncnn12 (racemic) [Example 353]
6,10,CC1CC=C(c2ccc(=O)n(CC(=O)NC3CCN(c4ccccc4)C3)n2)CC1 (mixture of isomers) [Example 369]

# Same assay, conditions: compound 50 μmol/L; HEK293 stably expressing human Nav1.1; read-out: Nav1.1 current amplification rate (%)
row,activation at 50 µM [%],Compound
1,255,Cc1cc(=O)n(CC(=O)Nc2ccn3cnnc3c2)nc1C1=CCC(C)(C)CC1 [Example 505]

# Same assay, conditions: concentration of each compound 1 μmol/L (Test Result 6)
row,Nav1.1 current amplification rate (%),Compound
1,80,CC1CC=C(c2ccc(=O)n(CC(=O)N3CCc4c(CNCC(F)F)cccc43)n2)CC1 (racemic) [Example 312]
2,46,CC1CC=C(c2ccc(=O)n(CC(=O)N3CCc4c(-c5cc[nH]n5)ccc(F)c43)n2)CC1 (racemic) [Example 292]
3,174,CC1CC=C(c2ccc(=O)n(CC(=O)Nc3cccc(-n4ccnc4)c3)n2)CC1 (racemic) [Example 363]
4,91,CC1CC=C(c2ccc(=O)n(CC(=O)N3CCc4c3ccnc4C3=CCOC3)n2)CC1 (racemic) [Example 284]
5,134,CC1CC=C(c2ccc(=O)n(CC(=O)Nc3ccc(-n4ccnc4)nc3)n2)CC1 (racemic) [Example 377]
6,10,CC1CC=C(c2ccc(=O)n(CC(=O)N3CCc4c3ccnc4C3=CCN(C(=O)OC(C)(C)C)C3)n2)CC1 (racemic) [Example 280]
7,113,CC1CC=C(c2ccc(=O)n(CC(=O)N3CCc4c3ccnc4-c3cn[nH]c3)n2)CC1 (racemic) [Example 285]
8,77,COC1CCN(Cc2cccc3c2CCN3C(=O)Cn2nc(C3=CCC(C)CC3)ccc2=O)C1 (mixture of isomers) [Example 273]
9,51,CC1CC=C(c2ccc(=O)n(CC(=O)N3CCc4cc(-c5cccnc5)ccc43)n2)CC1 (racemic) [Example 298]
10,57,CC1CC=C(c2ccc(=O)n(CC(=O)Nc3cnc4c(cnn4C)c3)n2)CC1 (racemic) [Example 348]
11,87,CC(=O)N1CC=C(c2nccc3c2CCN3C(=O)Cn2nc(C3=CCC(C)CC3)ccc2=O)C1 (racemic) [Example 310]
12,37,Cc1cc2ccc(NC(=O)Cn3nc(C4=CCC(C)CC4)ccc3=O)cn2n1 (racemic) [Example 347]
13,115,Cc1cn(Cc2cccc3c2CCN3C(=O)Cn2nc(C3=CCC(C)CC3)ccc2=O)cn1 (racemic) [Example 288]
14,69,CC1CC=C(c2ccc(=O)n(CC(=O)Nc3ccc4cncn4c3)n2)CC1 (racemic) [Example 344]
15,13,CC1CC=C(c2ccc(=O)n(CC(=O)Nc3cncc(C4=COCCC4)c3)n2)CC1 (racemic) [Example 382]
16,38,CC1CC=C(c2ccc(=O)n(CC(=O)Nc3cncc(C4=CCN(C)C4)c3)n2)CC1 (racemic) [Example 367]

# Same assay, conditions: concentration of each compound 1 μmol/L (Test Result 6); read-out: Nav1.1 current amplification rate (%)
row,activation at 1 µM [%],Compound
1,50,COc1cc(=O)n(CC(=O)Nc2ccn3ncnc3c2)nc1C1=CCC(C)(C)CC1 [Example 499]
2,37,CC1(C)CC=C(c2ccc(=O)n(CC(=O)Nc3ccn4ncnc4c3)n2)C1 [Example 496]
3,34,CC1CCN(c2ccc(=O)n(CC(=O)Nc3ccn4ncnc4c3)n2)CC1 [Example 229]
